In patent US6825172B2, “3-descladinosyl-6-O-carbamoyl and 6-O-carbonoyl macrolide antibacterial agents” (Janssen Pharmaceutica, NV, priority 2002, dated 2004):
Values after ≈ are worked out from the molar mass of the structure shown. Read-outs that look alike come from different tables or passages of the source.

Legend:
Assay in all cases: MIC, microdilution broth method (NCCLS)
Assay type in all cases: cell-based
S. pneumoniae ATCC49619 = settings: Streptococcus pneumoniae, read-out: MIC Values, D: S. pneumoniae ATCC49619
Experimental: (§1) Minimal inhibitory concentration (MIC) has been an indicator of in vitro antibacterial activity widely used in the art. The in vitro antimicrobial activity of the compounds was determined by the microdilution broth method following the test method from the National Committee for Clinical Laboratory Standards (NCCLS). This method is described in the NCCLS Document M7-A4, Vol.17, No.2, “Methods for Dilution Antimicrobial Susceptibility Test for Bacteria that Grow Aerobically—Fourth Edition”, which is incorporated herein by reference.
(§2) In this method two-fold serial dilutions of drug in cation adjusted Mueller-Hinton broth are added to wells in microdilution trays. The test organisms are prepared by adjusting the turbidity of actively growing broth cultures so that the final concentration of test organism after it is added to the wells is approximately 5×10^4 CFU/well.
(§3) Following inoculation of the microdilution trays, the trays are incubated at 35 °C for 16-20 hours and then read. […] The amount of growth in the wells containing the test compound is compared with the amount of growth in the growth-control wells (no test compound) used in each tray. As set forth in Table 1, compounds of the present invention were tested against a variety of Gram positive and Gram negative pathogenic bacteria resulting in a range of activities depending on the organism tested.

S. aureus ATCC29213 = settings: Staphylococcus aureus, read-out: MIC Values, B: S. aureus ATCC29213
Experimental: as §1, §2, §3

E. faecalis ATCC29212 = settings: Enterococcus faecalis, read-out: MIC Values, C: E. faecalis ATCC29212
Experimental: as §1, §2, §3

[1] = Table 2, 3,6-Dicarbamoyl Macrolide Derivatives
[2] = Table 3, 6-Carbonate Macrolide Derivatives
[3] = Table 1, 6-Carbamoyl-3-Acyl Macrolide Derivatives

MIC (S. pneumoniae ATCC49619; [1]) [µg/mL] | MIC (S. aureus ATCC29213; [1]) [µg/mL] | MIC (E. faecalis ATCC29212; [1]) [µg/mL] | MIC (S. pneumoniae ATCC49619; [2]) [µg/mL] | MIC (S. aureus ATCC29213; [2]) [µg/mL] | MIC (E. faecalis ATCC29212; [2]) [µg/mL] | SMILES | further results
0.06 (≈ 0.064 µM) | 0.5 (≈ 0.534 µM) | 0.5 (≈ 0.534 µM) |  |  |  | CC[C@H]1OC(=O)[C@H](C)[C@@H](OC(=O)N(CC)CC)[C@H](C)[C@@H](O[C@@H]2O[C@H](C)C[C@H](N(C)C)[C@H]2O)[C@](C)(OC(=O)NC/C=C/c2ccc(-c3cnccn3)cc2)C[C@@H](C)C(=O)[C@H](C)[C@H]2NC(=O)O[C@@]21C [Compound 69] | 
0.06 (≈ 0.0648 µM) | 0.5 (≈ 0.54 µM) | 0.5 (≈ 0.54 µM) |  |  |  | CC[C@H]1OC(=O)[C@H](C)[C@@H](OC(=O)N(CC)CC)[C@H](C)[C@@H](O[C@@H]2O[C@H](C)C[C@H](N(C)C)[C@H]2O)[C@](C)(OC(=O)NC/C=C/c2ccc(-n3cncn3)cc2)C[C@@H](C)C(=O)[C@H](C)[C@H]2NC(=O)O[C@@]21C [Compound 72] | 
0.12 (≈ 0.128 µM) | 1 (≈ 1.06 µM) | 0.5 (≈ 0.532 µM) |  |  |  | CC[C@H]1OC(=O)[C@H](C)[C@@H](OC(=O)N(CC)CC)[C@H](C)[C@@H](O[C@@H]2O[C@H](C)C[C@H](N(C)C)[C@H]2O)[C@](C)(OC(=O)NC/C=C/c2ccc(-c3ccn(C)n3)cc2)C[C@@H](C)C(=O)[C@H](C)[C@H]2NC(=O)O[C@@]21C [Compound 73] | 
 |  |  | 0.03 (≈ 0.0313 µM) | 0.25 (≈ 0.261 µM) | 0.25 (≈ 0.261 µM) | CC[C@H]1OC(=O)[C@H](C)[C@@H](OC(=O)Cc2cccnc2)[C@H](C)[C@@H](O[C@@H]2O[C@H](C)C[C@H](N(C)C)[C@H]2O)[C@](C)(OC(=O)OC/C=C/c2ccc(-c3ncccn3)cc2)C[C@@H](C)C(=O)[C@H](C)[C@H]2NC(=O)O[C@@]21C [Compound 78] | 
0.06 (≈ 0.0649 µM) | 1 (≈ 1.08 µM) | 0.5 (≈ 0.54 µM) |  |  |  | CC[C@H]1OC(=O)[C@H](C)[C@@H](OC(=O)N(C)OC)[C@H](C)[C@@H](O[C@@H]2O[C@H](C)C[C@H](N(C)C)[C@H]2O)[C@](C)(OC(=O)NC/C=C/c2ccc(-c3ncccn3)cc2)C[C@@H](C)C(=O)[C@H](C)[C@H]2NC(=O)O[C@@]21C [Compound 68] | 
 |  |  | 0.25 (≈ 0.255 µM) | 1 (≈ 1.02 µM) | 0.5 (≈ 0.51 µM) | CC[C@H]1OC(=O)[C@H](C)[C@@H](OC(=O)N(CC)CC)[C@H](C)[C@@H](O[C@@H]2O[C@H](C)C[C@H](N(C)C)[C@H]2OC(C)=O)[C@](C)(OC(=O)OC/C=C/c2ccc(-c3ncccn3)cc2)C[C@@H](C)C(=O)[C@H](C)[C@H]2NC(=O)O[C@@]21C [Compound 75] | 
 |  |  | 0.06 (≈ 0.0628 µM) | 0.5 (≈ 0.523 µM) | 0.25 (≈ 0.261 µM) | CC[C@H]1OC(=O)[C@H](C)[C@@H](OC(=O)Cc2cccnc2)[C@H](C)[C@@H](O[C@@H]2O[C@H](C)C[C@H](N(C)C)[C@H]2O)[C@](C)(OC(=O)OCC#Cc2ccc(-c3ncccn3)cc2)C[C@@H](C)C(=O)[C@H](C)[C@H]2NC(=O)O[C@@]21C [Compound 81] | 
 |  |  |  |  |  | CC[C@H]1OC(=O)[C@H](C)[C@@H](OC(=O)C(C)C)[C@H](C)[C@@H](O[C@@H]2O[C@H](C)C[C@H](N(C)C)[C@H]2O)[C@](C)(OC(=O)NC/C=C/c2ccc(-c3ccn(C)n3)cc2)C[C@@H](C)C(=O)[C@H](C)[C@H]2NC(=O)O[C@@]21C [Compound 49] | MIC (S. pneumoniae ATCC49619; [3]): 0.06 µg/mL (≈ 0.0659 µM); MIC (S. aureus ATCC29213; [3]): 1 µg/mL (≈ 1.1 µM); MIC (E. faecalis ATCC29212; [3]): 1 µg/mL (≈ 1.1 µM)
 |  |  | 0.06 (≈ 0.066 µM) | 0.5 (≈ 0.55 µM) | 0.5 (≈ 0.55 µM) | CC[C@H]1OC(=O)[C@H](C)[C@@H](OC(=O)C(C)C)[C@H](C)[C@@H](O[C@@H]2O[C@H](C)C[C@H](N(C)C)[C@H]2O)[C@](C)(OC(=O)OC/C=C/c2ccc(-c3cccnn3)cc2)C[C@@H](C)C(=O)[C@H](C)[C@H]2NC(=O)O[C@@]21C [Compound 82] | 
 |  |  |  |  |  | CC[C@H]1OC(=O)[C@H](C)[C@@H](OC(=O)C(C)C)[C@H](C)[C@@H](O[C@@H]2O[C@H](C)C[C@H](N(C)C)[C@H]2O)[C@](C)(OC(=O)NC/C=C/c2ccc(-c3cccnn3)cc2)C[C@@H](C)C(=O)[C@H](C)[C@H]2NC(=O)O[C@@]21C [Compound 46] | MIC (S. pneumoniae ATCC49619; [3]): 0.06 µg/mL (≈ 0.0661 µM); MIC (S. aureus ATCC29213; [3]): 0.5 µg/mL (≈ 0.551 µM); MIC (E. faecalis ATCC29212; [3]): 0.12 µg/mL (≈ 0.132 µM)
